The NIST ThermoML archive (doi:10.1021/je301123j)

Experiment: xn = mol fraction of the nth substance listed
Settings: for surface tension liquid-gas: Ring tensiometer; for mass density / speed of sound / viscosity: 100 kPa, Liquid

CCN1CCCC1=O [1-ethyl-2-pyrrolidinone] + NCCO
Settings	mass density, 293.15 K [kg/m3]	mass density, 303.15 K [kg/m3]	speed of sound, 293.15 K [m/s]	speed of sound, 303.15 K [m/s]	surface tension liquid-gas, 293.15 K [mN/m]	surface tension liquid-gas, 303.15 K [mN/m]	viscosity, 293.15 K [mPa·s]	viscosity, 303.15 K [mPa·s]
x1 = 0.1	1014.83	1006.71	1694.5	1661.1	44.9	43.7	16.56	10.66
x1 = 0.2002	1012.06	1003.8	1652.1	1617	42.4	41.2	11.56	7.68
x1 = 0.2999	1008.77	1000.38	1621.1	1582.4	41.1	39.8	8.317	6.051
x1 = 0.4002	1006.13	997.65	1596	1560.4	39.8	38.5	6.255	4.76
x1 = 0.4999	1002.53	993.9	1575.8	1539.5	39.1	37.6	4.742	3.526
x1 = 0.5996	999.47	990.78	1554.4	1517.3	38.3	36.7	3.762	2.912
x1 = 0.7002	998.41	989.74	1540.5	1503.1	37.7	36.1	3.101	2.446
x1 = 0.7999	997.76	989.12	1529.1	1491.9	37.3	36.2	2.641	2.147
x1 = 0.8997	997.35	988.75	1519.5	–	37.1	35.7	2.325	–
x1 = 1	997.91	–	1513.2	–	36.5	35.2	2.132	–
